Reference: patent US12636810B2, “Wood preservative composition comprising 4,5-dichloro-2-octylisothiazol-3(2H)-one, a method treating a wood substrate therewith, and a wood product produced therefrom” (KOPPERS PERFORMANCE CHEMICALS, INC., priority 2021, dated 2026)

Assay: Organic solvent solvency with DCOI and retaining additive testing
Assay type: physicochemical
Design: key: Low: low solvency; Medium: medium solvency; High: high solvency
Details: 23.5% DCOI and 25.0% Chempol 801-2164 in the solvent; 40 degrees Fahrenheit; separation, precipitation, turbidity
Procedure: For testing the solvency (i.e., ability to dissolve) of the organic solvent for DCOI and the retaining additive, 4.7 gram of DCOI and 5.0 g of retaining additive were dissolved in 10.3 gram of organic solvent to make a 23.5% of DCOI and 25.0% resin solution in a clear 20 ml glass vial. Thereafter, the vial is stored at a selected temperature (i.e., ambient temperature, 40 degrees Fahrenheit, or 120 degree Fahrenheit or whenever a crosslinking may occur). The vial is monitored for up to 7 days for phase separation, precipitation, and turbidity, which may indicate incompatibility between the organic solvent and the retaining additive and/or DCOI. The as prepared solution is maintained at room temperature and 40 degrees Fahrenheit for up to 7 days or whenever a phase separation, precipitation or solution turbidity event happens to disqualify the solution.
The solvents were tested at 40 degrees Fahrenheit and rated low solvency, medium solvency, or high solvency based on the amount, if any, of separation, precipitation, and turbidity observed in each solution.

DCOI/Resin Solvency: High
SMILES: OCc1ccccc1 [Benzyl Alcohol]
